{
  "source": "patent US7119262B1",
  "about": "“Production of transgenic poinsettia” (priority 1997, dated 2006)",
  "key": {"Bemisia": {"tested_on": "Bemisia", "assay": "Whitefly artificial feeding study with tryptamine-supplemented diets", "format": "in vivo, Bemisia tabaci", "conditions": "artificial diet", "protocol": "To assess whether tryptamine was acutely toxic to whitefly, artificial feeding studies were conducted in which whiteflies were fed artificial diets supplemented with a range of tryptamine concentrations."}, "Fusarium graminearum": {"tested_on": "Fusarium graminearum", "conditions": "non-germinated spores, 24 hrs"}, "Rhyzoctonia solani R2": {"tested_on": "Rhyzoctonia solani R2", "conditions": "24 h"}, "Erwinia carotovora": {"tested_on": "Erwinia carotovora", "conditions": "24 h"}, "Pseudomonas syringae": {"tested_on": "Pseudomonas syringae", "conditions": "24 h"}, "[1]": {"tested_on": "Phytophthora parasitica (petunia)"}, "Thielaviopsis basicola": {"tested_on": "Thielaviopsis basicola", "conditions": "24 h"}, "Botrytis cinerea": {"tested_on": "Botrytis cinerea", "conditions": "24 h"}, "[2]": {"tested_on": "Phytophthora parasitica (vinca)", "conditions": "vinca isolate, 24 hrs"}, "Fusarium solani": {"tested_on": "Fusarium solani", "conditions": "24 h"}, "[3]": {"tested_on": "bacterial and fungal phytopathogens", "assay": "In vitro anti-microbial activity of lytic peptides (statement in words)", "format": "cell-based"}, "[4]": {"tested_on": "ethylene-induced epinasty", "conditions": "plants sprayed with 4 mM solution, 18 hrs later exposed to ethylene for 24 hours", "experimental": "To test for ethylene sensitivity, untransformed and transgenic poinsettia plants were exposed to 15 μl/liter ethylene for 24 hours to induce epinasty.\nAt 18 hrs after STS treatment, the STS-treated poinsettias were exposed to ethylene for 24 hours."}, "[5]": {"conditions": "petunia isolate, germinated spores, 24 hrs"}},
  "note": "Where two headings read alike, the source gives them in different places. Where no end group is shown, it is not given here.",
  "data": [
    {"compound": "NCCc1c[nH]c2ccccc12", "note": "[Tryptamine, tryptamine]", "values": [
      {"measurement": "tryptamine concentration toxic to Bemisia", "setting": "Bemisia", "result": "50 to 100", "unit": "µg/mL"}
    ]},
    {"compound": "GIGKFLHSAKKFGKAFVGEIMNS [Mag 2, magainin 2, reference compound]", "values": [
      {"measurement": "Minimum Inhibitory Concentration", "setting": "Fusarium graminearum", "result": "4 to 8", "unit": "µg/mL"},
      {"measurement": "Minimum Inhibitory Concentration", "setting": "Rhyzoctonia solani R2", "result": "16 to 32", "unit": "µg/mL"},
      {"measurement": "Minimum Inhibitory Concentration", "setting": "Erwinia carotovora", "result": 32, "unit": "µg/mL"},
      {"measurement": "Minimum Inhibitory Concentration", "setting": "Pseudomonas syringae", "result": 32, "unit": "µg/mL"},
      {"measurement": "Minimum Inhibitory Concentration", "setting": "[1]; 24 h", "result": ">128", "unit": "µg/mL"}
    ]},
    {"compound": "GIGKFLKSAKKFGKAFVKILNS [MSI-99]", "values": [
      {"measurement": "Minimum Inhibitory Concentration", "setting": "Thielaviopsis basicola", "result": 4, "unit": "µg/mL"},
      {"measurement": "Minimum Inhibitory Concentration", "setting": "Fusarium graminearum", "result": 4, "unit": "µg/mL"},
      {"measurement": "Minimum Inhibitory Concentration", "setting": "Rhyzoctonia solani R2", "result": 16, "unit": "µg/mL"},
      {"measurement": "Minimum Inhibitory Concentration", "setting": "Botrytis cinerea", "result": 8, "unit": "µg/mL"},
      {"measurement": "Minimum Inhibitory Concentration", "setting": "[1]; 24 h", "result": "8 to 16", "unit": "µg/mL"}
    ]},
    {"compound": "GMASKAGAIAGKIAKVALKAL-OH [PGL]", "values": [
      {"measurement": "Minimum Inhibitory Concentration", "setting": "Fusarium graminearum", "result": "4 to 8", "unit": "µg/mL"},
      {"measurement": "Minimum Inhibitory Concentration", "setting": "Rhyzoctonia solani R2", "result": "16 to 32", "unit": "µg/mL"},
      {"measurement": "Minimum Inhibitory Concentration", "setting": "Erwinia carotovora", "result": 32, "unit": "µg/mL"},
      {"measurement": "Minimum Inhibitory Concentration", "setting": "[2]; germinated spores", "result": ">128", "unit": "µg/mL"},
      {"measurement": "Minimum Inhibitory Concentration", "setting": "[2]; non-germinated spores", "result": ">256", "unit": "µg/mL"},
      {"measurement": "Minimum Inhibitory Concentration", "setting": "Pseudomonas syringae", "result": ">64", "unit": "µg/mL"},
      {"measurement": "Minimum Inhibitory Concentration", "setting": "[1]; [5]", "result": ">128", "unit": "µg/mL"}
    ]},
    {"compound": "KRKRAVKRVGRRLKKLARKIARLGVAF [Line D5-C, D5-C]", "values": [
      {"measurement": "Minimum Inhibitory Concentration", "setting": "Thielaviopsis basicola", "result": 16, "unit": "µg/mL"},
      {"measurement": "Minimum Inhibitory Concentration", "setting": "Fusarium solani", "result": 4, "unit": "µg/mL"},
      {"measurement": "Minimum Inhibitory Concentration", "setting": "Rhyzoctonia solani R2", "result": "32 to 64", "unit": "µg/mL"},
      {"measurement": "Minimum Inhibitory Concentration", "setting": "[2]; germinated spores", "result": "16 to 32", "unit": "µg/mL"},
      {"measurement": "Minimum Inhibitory Concentration", "setting": "[2]; non-germinated spores", "result": 16, "unit": "µg/mL"},
      {"measurement": "Minimum Inhibitory Concentration", "setting": "[1]; [5]", "result": "16 to 32", "unit": "µg/mL"}
    ]},
    {"compound": "MSI-55 (KIAGKIAKIAGKIAKIAGKIA)", "values": [
      {"measurement": "antibacterial and anti-fungal activity in vitro", "setting": "[3]", "result": "potent antibacterial and anti-fungal activity"}
    ]},
    {"compound": "silver thiosulfate [STS]", "values": [
      {"measurement": "signs of epinasty or wilting after ethylene treatment", "setting": "[4]", "result": "little, if any, signs of epinasty or wilting"}
    ]}
  ]
}
